PubChem BioAssay AID256 (DTP/NCI, 2004)
Values joined by “and” are separate entries in the source; they are usually repeats but may differ in a detail not shown here. Equal entries are not always repeated. Inconclusive results and toxic doses are left out. How the source made its calls: active means survival T/C of 150% or more; inactive means T/C below 125% in these data.

Test system: CD2F1 mice, L1210 leukemia ip, survival T/C
Assay: NCI In Vivo Anticancer Drug Screen. Data for tumor model L1210 Leukemia (intraperitoneal) in CD2F1 (CDF1) mice
Settings: higher = longer survival
Summary of the method: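 Activity against a transplanted murine tumor was judged by comparing the compound group with a vehicle group. The outcome in the treated animals was divided by that in the controls.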

[1] = endpoint: mean survival time, dose: 50.0 mg/kg/injection, schedule: Q04DX003 (ip), vehicle: saline with Tween-80
[2] = endpoint: mean survival time, dose: 100.0 mg/kg/injection, schedule: Q04DX003 (ip), vehicle: saline with Tween-80
[3] = endpoint: mean survival time, dose: 200.0 mg/kg/injection, schedule: Q04DX003 (ip), vehicle: saline with Tween-80
[4] = endpoint: mean survival time, dose: 200.0 mg/kg/injection, schedule: Q01DX009 (ip), vehicle: saline
[5] = endpoint: mean survival time, dose: 400.0 mg/kg/injection, schedule: Q01DX009 (ip), vehicle: saline
[6] = endpoint: mean survival time, dose: 100.0 mg/kg/injection, schedule: Q01DX001 (ip), vehicle: saline
[7] = endpoint: mean survival time, dose: 200.0 mg/kg/injection, schedule: Q01DX001 (ip), vehicle: saline
[8] = endpoint: mean survival time, dose: 400.0 mg/kg/injection, schedule: Q01DX001 (ip), vehicle: saline
[9] = endpoint: mean survival time, dose: 5.0 mg/kg/injection, schedule: Q01DX001 (ip), vehicle: saline
[10] = endpoint: mean survival time, dose: 10.0 mg/kg/injection, schedule: Q01DX001 (ip), vehicle: saline
[11] = endpoint: mean survival time, dose: 20.0 mg/kg/injection, schedule: Q01DX001 (ip), vehicle: saline

Measured: T/C

C[NH-].C[NH-].[Br][Pt][Br].[CH3-].[CH3-]
inactive: endpoint: mean survival time, dose: 1.56 mg/kg/injection, schedule: Q04DX003 (ip), vehicle: saline with Tween-80 97 % of control | endpoint: mean survival time, dose: 3.13 mg/kg/injection, schedule: Q04DX003 (ip), vehicle: saline with Tween-80 97 % of control | endpoint: mean survival time, dose: 6.25 mg/kg/injection, schedule: Q04DX003 (ip), vehicle: saline with Tween-80 104 % of control | endpoint: mean survival time, dose: 12.5 mg/kg/injection, schedule: Q04DX003 (ip), vehicle: saline with Tween-80 93 % of control | endpoint: mean survival time, dose: 25.0 mg/kg/injection, schedule: Q04DX003 (ip), vehicle: saline with Tween-80 89 % of control and 93 % of control | [1] 102 % of control | [2] 100 % of control | [3] 98 % of control | endpoint: mean survival time, dose: 400.0 mg/kg/injection, schedule: Q04DX003 (ip), vehicle: saline with Tween-80 94 % of control

CCCCNC(=O)C1CC2c3cccc4[nH]cc(c34)CC2N(C)C1 (stereo not given)
inactive: [1] 88 % of control | [2] 91 % of control

CCC[CH2][Sn-]([CH2]CCC)([CH2]CCC)[O]C(=O)C(C)C
inactive: endpoint: mean survival time, dose: 375.0 micrograms/kg/injection, schedule: Q01DX009 (ip), vehicle: saline 93 % of control | endpoint: mean survival time, dose: 750.0 micrograms/kg/injection, schedule: Q01DX009 (ip), vehicle: saline 100 % of control | endpoint: mean survival time, dose: 1500.0 micrograms/kg/injection, schedule: Q01DX009 (ip), vehicle: saline 96 % of control

CC(=O)C1CCC2C3CCC4=CC(=O)CC4(C)C3CCC12C (stereo not given)
inactive: [2] 113 % of control | [3] 124 % of control

CCCCCCCCCCCCCCCCCC[N+]1(C)CCSCC1
inactive: endpoint: mean survival time, dose: 12.5 mg/kg/injection, schedule: Q01DX001 (ip), vehicle: saline with Tween-80 95 % of control | endpoint: mean survival time, dose: 25.0 mg/kg/injection, schedule: Q01DX001 (ip), vehicle: saline with Tween-80 103 % of control | endpoint: mean survival time, dose: 50.0 mg/kg/injection, schedule: Q01DX001 (ip), vehicle: saline with Tween-80 104 % of control | endpoint: mean survival time, dose: 100.0 mg/kg/injection, schedule: Q01DX001 (ip), vehicle: saline with Tween-80 91 % of control and 101 % of control | endpoint: mean survival time, dose: 200.0 mg/kg/injection, schedule: Q01DX001 (ip), vehicle: saline with Tween-80 101 % of control and 110 % of control

Cc1ccc(C)c(C(O)C2CC2)c1 (stereo not given)
inactive: endpoint: mean survival time, dose: 100.0 mg/kg/injection, schedule: Q01DX009 (ip), vehicle: saline 96 % of control | [4] 100 % of control | [5] 102 % of control

O=C(O)c1ccc(Cl)c2ncccc12
inactive: endpoint: mean survival time, dose: 37.5 mg/kg/injection, schedule: Q01DX009 (ip), vehicle: saline 100 % of control | endpoint: mean survival time, dose: 75.0 mg/kg/injection, schedule: Q01DX009 (ip), vehicle: saline 95 % of control | endpoint: mean survival time, dose: 75.0 mg/kg/injection, schedule: Q04DX003 (ip), vehicle: saline 100 % of control | endpoint: mean survival time, dose: 150.0 mg/kg/injection, schedule: Q01DX009 (ip), vehicle: saline 105 % of control | endpoint: mean survival time, dose: 150.0 mg/kg/injection, schedule: Q04DX003 (ip), vehicle: saline 97 % of control | endpoint: mean survival time, dose: 300.0 mg/kg/injection, schedule: Q04DX003 (ip), vehicle: saline 95 % of control

C[N+]1(C)CCC2=CC3C=CC2C1C=C3 (stereo not given)
inactive: endpoint: median survival time, dose: 25.0 mg/kg/injection, schedule: Q04DX002 (ip), vehicle: saline with Tween-80 100 % of control | endpoint: median survival time, dose: 50.0 mg/kg/injection, schedule: Q04DX002 (ip), vehicle: saline with Tween-80 100 % of control

CCCCCCCCCCCCCCCC[N+]1(CC)CC[N+](CC)(CCCCCCCCCCCCCCCC)CC1 (stereo not given)
inactive: endpoint: mean survival time, dose: 100.0 mg/kg/injection, schedule: Q04DX003 (ip), vehicle: Klucel (hydroxypropylcellulose) (HPC) 96 % of control | endpoint: mean survival time, dose: 200.0 mg/kg/injection, schedule: Q04DX003 (ip), vehicle: Klucel (hydroxypropylcellulose) (HPC) 90 % of control | endpoint: mean survival time, dose: 400.0 mg/kg/injection, schedule: Q04DX003 (ip), vehicle: Klucel (hydroxypropylcellulose) (HPC) 100 % of control

CCCCn1cnc2c(=S)nc[nH]c21
inactive: endpoint: mean survival time, dose: 32.0 mg/kg/injection, schedule: Q01DX009 (ip), vehicle: saline 118 % of control and 105 % of control | endpoint: mean survival time, dose: 64.0 mg/kg/injection, schedule: Q01DX009 (ip), vehicle: saline 112 % of control and 115 % of control | endpoint: mean survival time, dose: 100.0 mg/kg/injection, schedule: Q01DX007 (ip), vehicle: saline 113 % of control | endpoint: mean survival time, dose: 100.0 mg/kg/injection, schedule: Q03DX003 (ip), vehicle: saline 102 % of control | endpoint: mean survival time, dose: 100.0 mg/kg/injection, schedule: Q04DX003 (ip), vehicle: saline 97 % of control | endpoint: mean survival time, dose: 128.0 mg/kg/injection, schedule: Q01DX009 (ip), vehicle: saline 118 % of control | endpoint: mean survival time, dose: 200.0 mg/kg/injection, schedule: Q03DX003 (ip), vehicle: saline 122 % of control | endpoint: mean survival time, dose: 200.0 mg/kg/injection, schedule: Q04DX003 (ip), vehicle: saline 118 % of control | endpoint: mean survival time, dose: 400.0 mg/kg/injection, schedule: Q01DX007 (ip), vehicle: saline 115 % of control | [5] 102 % of control | endpoint: median survival time, dose: 25.0 mg/kg/injection, schedule: Q01DX009 (ip), vehicle: saline with Tween-80 124 % of control and 107 % of control | endpoint: median survival time, dose: 50.0 mg/kg/injection, schedule: Q01DX009 (ip), vehicle: saline with Tween-80 122 % of control | endpoint: median survival time, dose: 400.0 mg/kg/injection, schedule: Q01DX009 (ip), vehicle: saline with Tween-80 122 % of control
active: endpoint: mean survival time, dose: 200.0 mg/kg/injection, schedule: Q01DX007 (ip), vehicle: saline 162 % of control | [4] 165 % of control | endpoint: mean survival time, dose: 256.0 mg/kg/injection, schedule: Q01DX009 (ip), vehicle: saline 153 % of control and 169 % of control | endpoint: mean survival time, dose: 400.0 mg/kg/injection, schedule: Q03DX003 (ip), vehicle: saline 168 % of control | endpoint: mean survival time, dose: 400.0 mg/kg/injection, schedule: Q04DX003 (ip), vehicle: saline 163 % of control | endpoint: median survival time, dose: 100.0 mg/kg/injection, schedule: Q01DX009 (ip), vehicle: saline with Tween-80 164 % of control | endpoint: median survival time, dose: 200.0 mg/kg/injection, schedule: Q01DX009 (ip), vehicle: saline with Tween-80 154 % of control and 164 % of control

CC(=O)C(C)(NCc1ccccc1)c1ccccc1 (stereo not given)
inactive: endpoint: mean survival time, dose: 50.0 mg/kg/injection, schedule: Q01DX009 (ip), vehicle: Klucel (hydroxypropylcellulose) (HPC) 97 % of control | endpoint: mean survival time, dose: 100.0 mg/kg/injection, schedule: Q01DX001 (ip), vehicle: other 100 % of control | [6] 101 % of control | endpoint: mean survival time, dose: 100.0 mg/kg/injection, schedule: Q01DX009 (ip), vehicle: Klucel (hydroxypropylcellulose) (HPC) 100 % of control | endpoint: mean survival time, dose: 200.0 mg/kg/injection, schedule: Q01DX001 (ip), vehicle: other 92 % of control | [7] 95 % of control | endpoint: mean survival time, dose: 200.0 mg/kg/injection, schedule: Q01DX009 (ip), vehicle: Klucel (hydroxypropylcellulose) (HPC) 100 % of control | endpoint: mean survival time, dose: 400.0 mg/kg/injection, schedule: Q01DX001 (ip), vehicle: other 107 % of control | [8] 93 % of control | endpoint: mean survival time, dose: 400.0 mg/kg/injection, schedule: Q01DX009 (ip), vehicle: Klucel (hydroxypropylcellulose) (HPC) 106 % of control

CCCC(=O)NC1=C(Cl)C(=O)c2ccccc2C1=O
inactive: [9] 88 % of control | [10] 103 % of control | [11] 95 % of control

CN=C(N)c1ccc(N=C(N)c2ccc(NC(=O)c3ccc(C(N)=NC)cc3)cc2)cc1
active: endpoint: mean survival time, dose: 30.0 mg/kg/injection, schedule: Q01DX Z (ip), vehicle: water 151 % of control

c1cc2c(cc1CC1CCNC1)OCO2 (stereo not given)
inactive: [9] 103 % of control | endpoint: mean survival time, dose: 5.0 mg/kg/injection, schedule: Q01DX009 (ip), vehicle: saline sonified 100 % of control | endpoint: mean survival time, dose: 5.0 mg/kg/injection, schedule: Q04DX003 (ip), vehicle: saline 101 % of control | [10] 103 % of control | endpoint: mean survival time, dose: 10.0 mg/kg/injection, schedule: Q01DX009 (ip), vehicle: saline sonified 91 % of control | endpoint: mean survival time, dose: 10.0 mg/kg/injection, schedule: Q04DX003 (ip), vehicle: saline 102 % of control | [11] 98 % of control | endpoint: mean survival time, dose: 20.0 mg/kg/injection, schedule: Q01DX009 (ip), vehicle: saline sonified 100 % of control | endpoint: mean survival time, dose: 20.0 mg/kg/injection, schedule: Q04DX003 (ip), vehicle: saline 101 % of control

c1ccc([O+](c2ccccc2)c2ccccc2)cc1
inactive: endpoint: mean survival time, dose: 0.63 mg/kg/injection, schedule: Q01DX009 (ip), vehicle: saline with Tween-80 102 % of control | endpoint: mean survival time, dose: 1.25 mg/kg/injection, schedule: Q01DX009 (ip), vehicle: saline with Tween-80 113 % of control | endpoint: mean survival time, dose: 2.5 mg/kg/injection, schedule: Q01DX009 (ip), vehicle: saline with Tween-80 107 % of control | endpoint: mean survival time, dose: 5.0 mg/kg/injection, schedule: Q01DX009 (ip), vehicle: saline with Tween-80 90 % of control and 112 % of control

CC=C(C(=O)OCC)C(=O)OCC
inactive: [6] 95 % of control | [7] 98 % of control | [8] 107 % of control
